Measurements as given in US12673039B2, “Methods of inducing autophagy using coumarin derivatives and related compounds” (Buck Institute for Research on Aging, priority 2019, dated 2026).

Test system: NL5901, CL2006 and CL4176 worms
Experiment: Motor function (thrashing, paralysis) in worms expressing human α-synuclein or Aβ in muscles
Format: in vivo, C. elegans
Conditions: NL5901, human α-synuclein within muscles
From the text: FIG. 21, panels A-F: AIC106 prevents neuronal loss and proteotoxicity in strains expressing human neurotoxic proteins. Panel A) Dopaminergic neuronal loss in day-5 UA44 worms was quantified by scoring percentage of worms with intact 4-CEP neurons in AIC106 and DMSO-control treatment. [N=3 independent experiments (mean±SD). ***p<0.001, by one-way ANOVA with Tukey's multiple comparisons test]. Motor function in (panel B) day-7 NL5901 and (panel C) day-5 CL2006 worms were quantified by scoring number of thrashes for an individual worm over the period of 30 seconds (dots) in AIC106 and DMSO-control treatment. […] Panel D) Motor function in temperature sensitive (enhanced paralysis at 25° C.) CL4176 worms was determined by scoring percent of worms paralyzed in AIC106 and DMSO-control treatment. […] P-value calculated by Logrank test]. Panel F) Effect of AIC106 on polyQ40 aggregation was determined by scoring number of polyQ40-YFP fluorescent puncta in an individual AM141 worm treated with AIC106 and DMSO-control. […]
FIG. 22, panels A-H: AIC106-induced HLH-30 expression is mediated by the nuclear hormone receptor DAF-12. […] Panel B) Relative fold change in mRNA of hlh-30 compared to DMSO-control was quantified using qRT-PCR in young adult wild-type N2 and daf-12(rh61rh411) worms post-24 hours treatment with AIC106. […]

In the case of `O=c1oc2c3c4c(cc2c2c1CCC2)CCCN4CCC3` [C1, 2,3,6,7,10,11-Hexahydro-1H,5H-cyclopenta(3,4)(1)benzopyrano(6,7,8-ij)quinolizin-12(9H)-one], the “motor function (thrashing rate)” value is reported as “improved motor function”.
With `Cc1cccc(C)c1OCc1cc(C(=O)N2CCC(c3ccncc3)CC2)no1` [DFA, dafadine-A, reference compound] the “motor function (thrashing rate)” value was “improved motor function”.
